Source: a melting point compilation (Tetko et al.; mined from patent text by program, amines drawn as free bases though some values may be those of a salt)

Row | melting point [°C] | SMILES
1 | 180 to 182 | Brc1ccccc1Oc1nc2ccccc2n2cncc12
2 | 230 | CN(C)C=Nc1sc([N+](=O)[O-])cc1C#N
3 | > 250 | Cc1ccc(S(=O)(=O)Nc2nc(-c3ccc([N+](=O)[O-])cc3)cs2)cc1
4 | 215 | COc1ccc(CN2C(=O)C(O)(c3ccncc3Cl)c3cc(Cl)ccc32)c(OC)c1 (centres undefined)
5 | 122 | CCCC(C)(O)C(=O)Nc1ccnc(C(=O)OC)c1 (centres undefined)
6 | 89 to 91 | N#CCCCSc1cccc(NC(N)=NCC(F)(F)F)n1
7 | 96.3 to 96.7 | CCc1cc(-c2[nH]c3ccccc3c2CC)cc(CC)c1O
8 | 191 to 194 | CNc1nc(OC)ccc1Nc1nc(Nc2cc3c(cc2OC)CCN(CC(=O)N(C)C)CC3)ncc1Cl
9 | 208 to 210 | Cc1cc2c(cc1C)C(=O)C(Nc1ccccc1)=CC2=O
10 | 130 to 131 | CCCCCCCCCCCCCCCCNc1ccc(C(=O)NS(=O)(=O)c2ccc([N+](=O)[O-])cc2)cc1
11 | 117 | CCN(CC)C(=O)C(C)Oc1nc(-c2ccccc2)cc2ccccc12 (centres undefined)
12 | 250 to 256 | CCNC(=O)c1ccc(N2CCN(Cc3ccc4c(c3)NC(=O)C(C)O4)CC2)cc1 (centres undefined)
13 | 110 to 114 | CCCCc1oc2ccccc2c1C(=O)c1cc(Cl)c(O)c(Cl)c1
14 | 78 | C[Si](C)(C)c1ccc(-c2ccc(Br)cc2F)c(F)c1F
15 | 107 to 109 | O=[N+]([O-])C(=Cc1ccc(F)cc1)c1ccc(F)cc1
16 | 260 to 262 | O=c1c2c(CCc3ccc([N+](=O)[O-])cc3)n[nH]c2c2cccnc2n1-c1ccccc1
17 | 181 to 182 | CN(C)c1ncc(-c2cccc(Nc3ccc(-c4ccoc4)cc3[N+](=O)[O-])c2)cn1
18 | 82 to 84 | COc1ccc2c(c1)CN(CCc1ccc(N)cc1)CC2
19 | 55 to 65 | Cc1cc2c(s1)Nc1ccccc1N=C2N1CCN(C)[C@@H](COCc2ccccc2)C1

Row | melting point [°C] | SMILES
20 | 213 to 215 | CC(=O)c1ccc(NCc2c(O)ccc3c2CCCO3)cc1
21 | 114 to 115 | CCOC(=O)c1ccc(-c2ccc(C#N)cc2)cc1
22 | 110 to 112 | CS(=O)(=O)NC(=O)CCCCOc1cccc2occc12
23 | 107 to 110 | CCCCC(=O)c1ccc(O)c(Cl)c1Cl
24 | 158 to 160 | C[C@@H](Oc1cccc(F)c1N)[C@H](NC(=O)OC(C)(C)C)C(=O)O
25 | 85 to 87 | O=Cc1c(O)c(Cl)cc(Cl)c1OCCCCC(=O)O
26 | 202 | CCOc1cnc(-c2ccc(O)cc2)nc1
27 | 241 to 242 | O=C(O)c1cc2ccccc2c(=O)o1
28 | 51 to 53 | CC(C)(C)OC(=O)/C(C#N)=C/c1cccc2ccccc12
29 | 128 | O=[N+]([O-])c1ccccc1NC(CO)c1c(Cl)cccc1Cl (centres undefined)
30 | 150 to 151 | Cc1cc2c(s1)SCCc1cc(=O)n(-c3ccc(Cl)cc3)nc1-2
31 | 264 to 267 | CN1CCN(c2cccc(-c3ccc(C#N)c(=O)[nH]3)c2)CC1
32 | 119 to 120 | CCOC(=O)C(C)(C#N)c1ccc2c(c1)Cc1cccnc1O2 (centres undefined)
33 | 264 to 266 | CC(=O)N1c2cc([N+](=O)[O-])ccc2[C@H]2Cc3ccc([N+](=O)[O-])cc3[C@H]21 (relative stereo)
34 | 251 to 253 | Cc1cc2c3c(cccc3c1)C(=O)N(O)C2=O
35 | 150 to 152 | CN(CCOc1ccc(NS(C)(=O)=O)cc1)CCc1ccc(NS(C)(=O)=O)cc1
36 | 87 to 88 | CCOC(=O)C(CC=Cc1ccc(Cl)cc1)S(=O)(=O)c1ccc(C)cc1 (centres undefined)
37 | 105 to 109 | CN(C(C)(C)C)S(=O)(=O)CC(N)=O
38 | 187 | COc1ccc(-c2ccc(N)nn2)cc1OCC(C)C

Row | melting point [°C] | SMILES
39 | 86 to 89 | COC1(c2ccc(F)cc2)CCC(=NO)CC1 (centres undefined)
40 | 136 | COc1ccc(S(=O)(=O)N(Cc2nnnn2C)c2ccc(Cl)cc2Cc2c(F)cccc2F)cc1OC
41 | 258 | N#Cc1c(N2CCN(C(=O)c3cccs3)CC2)c2ccccc2n(Cc2ccc(F)cc2)c1=O
42 | 72 to 74 | CCOC(=O)C(=O)c1ccc(C)[nH]1
43 | 172 to 174 | COc1cccc(CCNc2nc(N)n3nc(-c4ccco4)nc3n2)c1
44 | 142 to 143 | CCOc1nn(Cc2cc(OCc3nc(-c4ccccc4)oc3C)no2)cc1CCC(=O)O
45 | 79 | CCCCc1c2ccccc2c(C=O)c2ccccc12
46 | 141 to 144 | CCN(CC)CC1CCCCN1CC(=O)N1c2ccccc2NC(=O)c2c1ccn2C (centres undefined)
47 | 114 to 115 | CN(C)c1cc(CC(=O)O)cc(Cc2nc3c(F)c(F)cc(F)c3s2)c1
48 | 63 to 65 | CCOC(=O)c1cc(OCc2ccccc2)cc(OCc2ccccc2)c1
49 | 116 | CCCCCCCOc1c(C)cc2[nH]c(S(=O)Cc3ncc(C)c(OC)c3C)nc2c1C (centres undefined)
50 | 152 | CC(C)n1cc(-c2ccccc2)c(=O)c(-c2ccccc2)c1
51 | 190 | CC1=C(C(=O)OC(C)(C)C)C(c2cccc(Cl)c2)C(C(=O)OC(C)(C)C)=C(C)N1
52 | 142 to 146 | CC(=O)c1cc2c(Br)cccc2n1S(=O)(=O)c1ccccc1
53 | 167 to 168 | Cc1[nH]c2ccc(CCN3CCN(C)CC3)cc2c1C(=O)OCc1ccccc1
54 | 159 to 163 | COc1ccc(Cn2cnc3c(Cl)ncnc32)cc1OC
55 | 57 to 58 | CCOC(=O)c1ccc(C)nc1
56 | 71 to 73 | CCCCOC(=O)c1cc(NC(=O)C2=C(C)OCCS2)ccc1Cl

Continued, compound first:

Row | SMILES | melting point [°C]
57 | NC(=NCC(F)(F)F)Nc1nc(CCCCNc2ncccn2)cs1 | 173 to 175
58 | CCCN(CCC)Cc1coc(-c2ncn3c2CN(C)C(=O)c2ccccc2-3)n1 | 109 to 110
59 | O=C1NC(=O)C(=Cc2ccc(-c3cc(C4CCCCC4)c4oc(C(Cl)(Cl)Cl)nc4c3)nc2)S1 | 253
60 | CS(=O)(=O)c1nccc(-c2ccc(Oc3ccc(F)cc3)cc2)n1 | 146 to 147
61 | O=C1CC2c3ccccc3CCN2C2CCCC12 (centres undefined) | 101 to 102
62 | CCCC1=C(c2ccccc2)[C@@H](c2ccccc2)OC1=O | 104 to 105
63 | O=c1oc2ccc(-c3ccc(F)cc3F)cc2c(=O)n1-c1ccc(F)c(F)c1 | 193 to 194
64 | CC(C)(C)ON=Cc1ncn2c1[C@@H]1CCCN1C(=O)c1c(Cl)cccc1-2 | 215 to 216
65 | O=c1c2cc(O)ccc2nc(CSc2ncnc3[nH]cnc23)n1-c1ccccc1Cl | 186 to 214
66 | O=C1N(CC2CN(Cc3ccccc3)CCO2)c2ccccc2C12COc1cc3c(cc12)OCCO3 (centres undefined) | 88 to 100
67 | CC(c1oc2ccccc2c(=O)c1-c1cccc(F)c1)n1nc(-c2ccc3c(c2)OCCCO3)c2c(N)ncnc21 (centres undefined) | 234 to 237
68 | COC1=CC(=O)[C@H](C(=O)O[C@@H]2C[C@H](C)CC[C@H]2C(C)C)[C@@H](C)C1 | 78 to 80
69 | CCC1=Cc2cc3c(cc2C(c2ccc([N+](=O)[O-])cc2)=NN1C(C)=O)OCO3 | 132 to 134
70 | CC(=O)c1cc(N2CCOCC2)ccc1NC(=O)c1ccccc1OCc1ccccc1 | 144 to 146
71 | CO[C@H]1C(=O)N(S(C)(=O)=O)[C@H]2CCN(C(=O)OCc3ccccc3)[C@H]12 (relative stereo) | 146 to 149
72 | CCCCCCCCCCCCCCCCOC(=O)NCCN1CCCCC1 | 48
73 | c1ccc(-c2nsc(N3CCN(c4ccccn4)CC3)n2)cc1 | 137 to 138
74 | CCOCc1nc2c(N)nc3cc(Br)ccc3c2n1CC1(O)CCCC1 | 128 to 130
75 | Brc1ccc2c(c1)cc1n2CCC1 | 78.7 to 79.4
76 | Clc1ccc2c(c1)C(c1ccccc1Cl)NCc1c[nH]cc1-2 (centres undefined) | 211 to 212
77 | CCCCOC(=O)c1ccc2ccc(C(=O)NCc3ccc(O)c(O)c3)nc2c1OC(=O)C(C)(C)C | 189
78 | OCCOCCNc1nc(-n2ccnc2)nc2ccc(CO)cc12 | 183

Row | SMILES | melting point [°C]
79 | O=C1c2ccccc2C(=O)N1CC(=O)N1c2ccccc2N(Cc2ccccc2)C(=O)[C@H]2CCC[C@H]21 (relative stereo) | 247 to 249
80 | O=S(CCCCNC(P(=O)(O)O)P(=O)(O)O)c1ccccn1 (centres undefined) | 235 to 240
81 | CCn1cc(C(=O)NC2CCCCC2)c(=O)c2cnc(N3CCCC3)nc21 | 265 to 267
82 | O=C1c2ccccc2COc2ccc(CCCOC(=O)C(F)(F)F)cc21 | 40.5 to 41
83 | COc1cccc(CC(=O)O)c1OCCCc1cn(-c2ccc(NC(=O)C(C)C)cn2)nc1C(C)C | 122 to 123
84 | COc1cccc2cc(CNCCNC(=O)C34CC5CC(CC3C5)C4)oc12 | 103 to 107
85 | CCOCCn1c(COc2cccc(CO)c2)nc2ccccc21 | 105 to 107
86 | CN1CCC(OC2c3cccc(-c4cccc(N)c4)c3CCn3cc(-c4ccccc4)nc32)CC1 (centres undefined) | 120
87 | O=C(O)CNC1CCc2ccccc2C1 (centres undefined) | 223 to 227
88 | FC(F)(F)Oc1ccc(C2N=C(Nc3cccc(-c4cncnc4)c3)n3ccnc32)cc1 (centres undefined) | 120 to 130
89 | COc1ccc(OC2=CCNCC2)cc1 | 45 to 46
90 | Cc1nc(C)c(C(=O)CBr)[nH]1 | 128 to 132
91 | COc1ccc(-n2nc(C(O)c3ccccc3)cc2-c2ccc(C)cc2)cc1 (centres undefined) | 101 to 103
92 | Cn1cc(C2CCN(CCCCNC(=O)c3ccc(-c4ccc(C(F)(F)F)cc4)cc3)CC2)c2ccccc21 | 205 to 206
93 | O=C1C[C@]2(c3ccccc3)CCCC[C@H]2C(=O)N1 (relative stereo) | 180 to 182
94 | OC1=C(C(=S)Nc2ccccc2)c2nc3ccccc3n2CC1 | 224 to 227
95 | CC(C)n1nc(-c2cnc(N)nc2-c2ccccc2Cl)ccc1=O | 227 to 228
96 | CC1CC(O)CC2=CCC3C4CCC(=O)C4(C)CCC3C21C (centres undefined) | 167 to 169
97 | Cc1noc([C@@H](Cc2ccccc2)NC(=O)[C@@H](Cc2ccc3ccccc3c2)NC(=O)C=CC(C)(C)NC(=O)OC(C)(C)C)n1 | 161 to 167
98 | OCc1cn(-c2ccc(-c3ccccc3)cc2)cn1 | 173 to 177
99 | CCCc1c(C(=O)C(C)C)c2ccc(CC(N)=O)cc2n1Cc1cc2c(cc1Cl)OCO2 | 136 to 138
